Measurements reported in US4031210A, “Antibiotic aminoglycosides, processes of preparation and pharmaceutical compositions” (Roussel-UCLAF, priority 1974, dated 1977).
Where a name gives a salt, the structure may show the parent alone. Read-outs that look alike come from different tables or passages of the source.

Key:
[1] = test system: Enterobacter aerogenes Co11; assay: In vitro antibacterial activity, dilution method in liquid medium; assay type: cell-based; details: Klebsiella aerogenes, 37°, expressed as base, read-out: minimal inhibiting concentration (MIC)
Experimental: (§1) The antibacterial activity has been measured in vitro by the dilution method in liquid medium. A series of tubes is prepared in which is distributed the same quantity of nutritive medium. Increasing quantities of the antibiotic under study are distributed, then each tube is innoculated with a bacterial strain as indicated in the table. After a 18, 24 or 48 hour incubation in a 37° oven, inhibition of the bacterial growth is appraised by transillumination which determines the minimal inhibiting concentration (MIC) of the products expressed as μg/ml of base in the table. In the following table, the product of Example 2 is identified as Product A.

[2] = test system: Enterobacter aerogenes Co86; assay: as above; assay type: cell-based; details: Klebsiella aerogenes, 37°, expressed as base, read-out: minimal inhibiting concentration (MIC)
Experimental: as §1

[3] = test system: Escherichia coli 156; assay: as above; assay type: cell-based; details: 37°, expressed as base, read-out: minimal inhibiting concentration (MIC)
Experimental: as §1

[4] = test system: Escherichia coli 9 911; assay: as above; assay type: cell-based; details: 37°, expressed as base, read-out: minimal inhibiting concentration (MIC)
Experimental: as §1

[5] = test system: Escherichia coli 9 965; assay: as above; assay type: cell-based; details: 37°, expressed as base, read-out: minimal inhibiting concentration (MIC)
Experimental: as §1

[6] = test system: Salmonella anatum 23 348; assay: as above; assay type: cell-based; details: Salmonella enterica, 23348, 37°, expressed as base, read-out: minimal inhibiting concentration (MIC)
Experimental: as §1

[7] = test system: Salmonella typhimurium 1 374; assay: as above; assay type: cell-based; details: Salmonella enterica, 37°, expressed as base, read-out: minimal inhibiting concentration (MIC)
Experimental: as §1

[8] = test system: Salmonella typhimurium 420; assay: as above; assay type: cell-based; details: Salmonella enterica, 37°, expressed as base, read-out: minimal inhibiting concentration (MIC)
Experimental: as §1

[9] = test system: Serratia marcesens CoB 35; assay: as above; assay type: cell-based; details: 37°, expressed as base, read-out: minimal inhibiting concentration (MIC)
Experimental: as §1

[10] = test system: Staphylococcus aureus 38 691; assay: as above; assay type: cell-based; details: 37°, expressed as base, read-out: minimal inhibiting concentration (MIC)
Experimental: as §1

[11] = test system: Staphylococcus aureus 40 481; assay: as above; assay type: cell-based; details: 37°, expressed as base, read-out: minimal inhibiting concentration (MIC)
Experimental: as §1

[12] = test system: Staphylococcus aureus 40 511; assay: as above; assay type: cell-based; details: 37°, expressed as base, read-out: minimal inhibiting concentration (MIC)
Experimental: as §1

[13] = test system: Staphylococcus aureus 40 821; assay: as above; assay type: cell-based; details: 37°, expressed as base, read-out: minimal inhibiting concentration (MIC)
Experimental: as §1

[14] = test system: Streptococcus faecalis 99 F 74; assay: as above; assay type: cell-based; details: Enterococcus faecalis, 99F74; 18 H incubation, 37°, expressed as base; read-out: minimal inhibiting concentration (MIC)
Experimental: as §1

[15] = test system: Klebsiella Pneumonia No. 52145; assay: In vivo antibacterial activity on experimental Klebsiella Pneumonia infection in mice; details: subcutaneous, 1, 5 and 24 hours after infection, 10 mice
Experimental: The antibacterial activity has been measured in vivo on an experimental Klebsiella Pneumonia infection.
40 male mice with a medium weight of 21 grams were divided in 4 series of 10 mice. An intraperitoneal infection with 0.5 ml of a Klebsiella Pneumonia No. 52145 culture in nutritive medium diluted to one thousandth with sterile water is conducted. Treatment is performed by a subcutaneous administration of the product of Example 2, (Product A) three times, (1 hour, 5 hours and 24 hours) after infection. The mortality rate at different times as indicated in the table was measured as well as the number of mice surviving after 8 days.

[16] = total dose 0,03 mg (as free base)

Compound `CNC1CC(C)OC(OC2C(N)CC(N)C(OC3OC(CN)C(O)CC3N)C2O)C1O` [Product A, 4-0-[2',6'-diamino 2', 3', 6'-tridesoxy α, D-ribohexopyranosyl] 6-0-[3"-methylamino 3",4",6"-tridesoxy α, D-xylohexopyranosyl] 2-desoxy streptamine sulfate] has an MIC ([1]; 18 H incubation) of 0.4 µg/mL, an MIC ([1]; 24 H incubation) of 0.4 µg/mL and an MIC ([1]; 48 H incubation) of 1 µg/mL. The MIC ([2]; 18 H incubation) was 0.6 µg/mL, the MIC ([2]; 24 H incubation) was 0.6 µg/mL and the MIC ([2]; 48 H incubation) was 0.6 µg/mL. It also gave an MIC ([3]; 18 H incubation) of 0.4 µg/mL, an MIC ([3]; 24 H incubation) of 0.6 µg/mL and an MIC ([3]; 48 H incubation) of 1 µg/mL. For the same compound, the MIC ([4]; 9911, 18 H incubation) was 0.6 µg/mL, the MIC ([4]; 9911, 24 H incubation) was 0.6 µg/mL and the MIC ([4]; 9911, 48 H incubation) was 0.2 µg/mL. For the same compound, the MIC ([5]; 9965, 18 H incubation) was 0.6 µg/mL, the MIC ([5]; 9965, 24 H incubation) was 1 µg/mL and the MIC ([5]; 9965, 48 H incubation) was 2 µg/mL. For the same compound, the MIC ([6]; 18 H incubation) was 1 µg/mL, the MIC ([6]; 24 H incubation) was 3 µg/mL and the MIC ([6]; 48 H incubation) was 15 µg/mL. The MIC ([7]; 18 H incubation) was 1 µg/mL, the MIC ([7]; 24 H incubation) was 5 µg/mL and the MIC ([7]; 48 H incubation) was 10 µg/mL. The MIC ([8]; 18 H incubation) was 2 µg/mL, the MIC ([8]; 24 H incubation) was 5 µg/mL and the MIC ([8]; 48 H incubation) was 20 µg/mL. The MIC ([9]; COB35, 18 H incubation) was 10 µg/mL, the MIC ([9]; COB35, 24 H incubation) was 40 µg/mL and the MIC ([9]; COB35, 48 H incubation) was 40 µg/mL. It also gave an MIC ([10]; 38691, 24 H incubation) of 0.1 µg/mL, an MIC ([10]; 38691, 48 H incubation) of 0.1 µg/mL and an MIC ([11]; 40481, 18 H incubation) of 0.1 µg/mL. For the same compound, the MIC ([11]; 40481, 24 H incubation) was 0.1 µg/mL, the MIC ([11]; 40481, 48 H incubation) was 0.2 µg/mL and the MIC ([12]; 40511, 18 H incubation) was 0.2 µg/mL. The MIC ([12]; 40511, 24 H incubation) was 0.6 µg/mL, the MIC ([12]; 40511, 48 H incubation) was 1 µg/mL and the MIC ([13]; 40821, 18 H incubation) was 0.1 µg/mL. For the same compound, the MIC ([13]; 40821, 24 H incubation) was 0.1 µg/mL, the MIC ([13]; 40821, 48 H incubation) was 0.1 µg/mL and the MIC [14] was > 20 µg/mL. The “Mortality at 5 H” value [15, 16] was 1, the “Survived to the eighth day (number of mice)” value (shortened to “Survived to the eighth day”) [15, 16] was 9 mice and the “Survived to the eighth day” value ([15]; total dose 0,05 mg (as free base)) was 10 mice. The “Survived to the eighth day” value ([15]; total dose 0,075 mg (as free base)) was 10 mice.
